{"source": "paper PMC6842052", "about": "(The Journal of pharmacy and pharmacology, 2019)", "key": {"[1]": {"experiment": "Pharmacokinetic study of URB937 in rats", "type": "in vivo, rat"}, "[2]": {"tested_on": "OEA levels (biomarker of FAAH activity)", "experiment": "OEA levels in liver and plasma after oral URB937", "type": "in vivo", "conditions": "rat, oral 0.3, 1, 3, 10 mg/kg, one hour"}, "male and female rats [3]": {"tested_on": "male and female rats", "experiment": "Acute toxicity study", "type": "in vivo, rat"}, "[4]": {"conditions": "ref unpublished results; cited from earlier work"}, "[5]": {"tested_on": "human potassium hERG channel", "conditions": "ref unpublished results; cited from earlier work"}, "male and female rats [6]": {"tested_on": "male and female rats", "experiment": "Subchronic toxicity study"}, "[7]": {"conditions": "male Sprague Dawley rats, 3 mg/kg oral"}, "[8]": {"conditions": "male and female rats, single oral 100, 300, 1000 mg/kg"}, "[9]": {"conditions": "male rats, single oral 300 mg/kg, 7 days"}, "[10]": {"conditions": "male and female rats, 100, 300, 1000 mg/kg oral for 14 days"}}}
{"molecule": "NC(=O)c1cccc(-c2cc(OC(=O)NC3CCCCC3)ccc2O)c1", "note": "[URB937]", "values": [{"measurement": "AUCplasma, area under the curve", "setting": "[1]; [7]", "result": 656.2, "unit": "ng·h/mL"}, {"measurement": "Tmax, time at which Cmax is reached", "setting": "[1]; [7]", "result": 1, "unit": "h"}, {"measurement": "Vd, distribution volume", "setting": "[1]; [7]", "result": 17.9, "unit": "L"}, {"measurement": "F, oral bioavailability", "setting": "[1]; male Sprague Dawley rats, 3 mg/kg oral vs intravenous", "result": 36, "unit": "%"}, {"measurement": "Cl, clearance", "setting": "[1]; male Sprague Dawley rats, 3 mg/kg oral, noncompartmental model", "result": 76.64, "unit": "mL/min"}, {"measurement": "Cmax, maximal plasma concentration", "setting": "[1]; male Sprague Dawley rats, 3 mg/kg oral, plasma", "result": 159.47, "unit": "ng/mL"}, {"measurement": "t1/2, terminal half-life", "setting": "[1]; male Sprague Dawley rats, 3 mg/kg oral, 3 mg/kg", "result": 2.702, "unit": "h"}, {"measurement": "t1/2 (cleared from circulation)", "setting": "[1]; male rats, 3 mg/kg oral", "result": "approximately 3 h"}, {"measurement": "brain levels of URB937", "setting": "[1]; male rats, 3 mg/kg oral, below limit of detection (LOD 50 pg/ml, LOQ 300 pg/ml)", "result": "< 0.05", "unit": "ng/mL"}, {"measurement": "plasma levels of URB937 in dose-escalation study", "setting": "[1]; rats, oral 0.3 to 100 mg/kg, 1 h after treatment", "result": "increased linearly in the dose range of 0.3 to 10 mg/kg and reached saturation between 30 mg/kg and 100 mg/kg"}, {"measurement": "OEA levels in liver", "setting": "[2]", "result": "dose-dependent elevation"}, {"measurement": "OEA levels in plasma", "setting": "[2]", "result": "dose-dependent elevation"}, {"measurement": "food intake", "setting": "male and female rats [3]; female rats, single oral 100 mg/kg, 7 days", "result": "small, but significant increase"}, {"measurement": "water consumption", "setting": "male and female rats [3]; female rats, single oral 1000 mg/kg, 7 days", "result": "larger increment"}, {"measurement": "tolerability", "setting": "male and female rats [3]; male and female rats, acute oral administration of supramaximal doses", "result": "well tolerated"}, {"measurement": "hematology and blood chemistry screens", "setting": "male and female rats [3]; [8]", "result": "no significant alterations"}, {"measurement": "macroscopic examination at necropsy and microscopic histopathology", "setting": "male and female rats [3]; [8]", "result": "did not reveal any abnormality"}, {"measurement": "mortality", "setting": "male and female rats [3]; [8]", "result": "None of the animals died"}, {"measurement": "cumulative food intake", "setting": "male and female rats [3]; [9]", "result": "reduced"}, {"measurement": "cumulative water intake", "setting": "male and female rats [3]; [9]", "result": "reduced"}, {"measurement": "genotoxic effects in the Ames' test", "setting": "[4]", "result": "does not exert genotoxic effects"}, {"measurement": "inhibition of the human potassium hERG channel", "setting": "[5]", "result": "does not inhibit"}, {"measurement": "food intake", "setting": "male and female rats [6]; female rats, 300 mg/kg oral once daily for 14 days", "result": "small increase"}, {"measurement": "macroscopic examination at necropsy and microscopic histopathology", "setting": "male and female rats [6]; [10]", "result": "did not reveal any abnormality"}, {"measurement": "mortality", "setting": "male and female rats [6]; [10]", "result": "None of the animals died"}, {"measurement": "tolerability", "setting": "male and female rats [6]; male and female rats, subchronic (2 weeks) oral administration of supramaximal doses", "result": "well tolerated"}, {"measurement": "plasma glucose levels", "setting": "male and female rats [6]; male rats only, 14-day oral administration", "result": "increase"}]}
